The results in this text go back to ChEMBL document CHEMBL5365500, “Development and Antibacterial Properties of 4-[4-(Anilinomethyl)-3-phenylpyrazol-1-yl]benzoic Acid Derivatives as Fatty Acid Biosynthesis Inhibitors” (J Med Chem, 2023).

Format in all cases: functional
The test system of test [1] is Staphylococcus aureus. Put plainly: Antimicrobial activity against Staphylococcus aureus ATCC 25923 assessed as inhibition of visible growth measured after 20 to 24 hrs incubation by CLSI method. The following applies: time 20-24 hrs.
Test [2] deals with Staphylococcus aureus. Description: Antimicrobial activity against antibiotic-resistant Staphylococcus aureus ATCC BAA-2312 assessed as inhibition of visible growth measured after 20 to 24 hrs incubation by CLSI method. The following applies: time 20-24 hrs.
The subject of test [3] is Staphylococcus aureus. Description: Antimicrobial activity against antibiotic-resistant Staphylococcus aureus ATCC 33591 assessed as inhibition of visible growth measured after 20 to 24 hrs incubation by CLSI method. The following applies: time 20-24 hrs.
Test [4] concerns Staphylococcus epidermidis. Description: Antimicrobial activity against antibiotic-resistant Staphylococcus epidermidis ATCC 700296 assessed as inhibition of visible growth measured after 20 to 24 hrs incubation by CLSI method. The following applies: time 20-24 hrs.
Test [5] has as its system Enterococcus faecalis. Description: Antimicrobial activity against antibiotic-susceptible Enterococcus faecalis ATCC 29212 assessed as inhibition of visible growth measured after 20 to 24 hrs incubation by CLSI method. The note with it: time 20-24 hrs.
The next test relates to Enterococcus faecium. Description: Antimicrobial activity against antibiotic-resistant Enterococcus faecium ATCC 700221 assessed as inhibition of visible growth measured after 20 to 24 hrs incubation by CLSI method. The following applies: time 20-24 hrs.
Test [6] relates to Staphylococcus aureus. Description: Antimicrobial activity against antibiotic-resistant Staphylococcus aureus ATCC 700699 assessed as inhibition of visible growth measured after 20 to 24 hrs incubation by CLSI method. The note with it: time 20-24 hrs.
Another test relates to Bacillus subtilis. Description: Antimicrobial activity against antibiotic-resistant Bacillus subtilis ATCC 6623 assessed as inhibition of visible growth measured after 20 to 24 hrs incubation by CLSI method. The note with it: time 20-24 hrs.
The subject of test [7] is Staphylococcus aureus. Description: Antimicrobial activity against antibiotic-resistant Staphylococcus aureus ATCC 33592 assessed as inhibition of visible growth measured after 20 to 24 hrs incubation by CLSI method. The note with it: time 20-24 hrs.
Test [8] has as its system Enterococcus faecalis. Put plainly: Antimicrobial activity against antibiotic-resistant Enterococcus faecalis ATCC 51299 assessed as inhibition of visible growth measured after 20 to 24 hrs incubation by CLSI method. The note with it: time 20-24 hrs.
The test system of test [9] is Staphylococcus aureus. Description: In vivo antimicrobial activity against Staphylococcus aureus Newman infected in Caenorhabditis elegans AU37 nematodes assessed as viability of nematodes incubated for 5 days by susceptibility test. The following applies: 120 h, time 5 day.
Test [10] deals with Staphylococcus aureus. Put plainly: In vivo antimicrobial activity against Staphylococcus aureus UAMS-1 infected in Caenorhabditis elegans AU37 nematodes assessed as viability of nematodes incubated for 5 days by susceptibility test. The note with it: UAMS-1, 120 h, time 5 day.
In test [11] the test system is Staphylococcus aureus. Put plainly: In vivo antimicrobial activity against Staphylococcus aureus USA300 infected in Caenorhabditis elegans AU37 nematodes assessed as viability of nematodes incubated for 5 days by susceptibility test. The following applies: USA300, 120 h, time 5 day.

Values after ≈ are worked out from the molar mass of the structure shown.

As to `O=C(O)c1ccc(-n2cc(CNc3ccc(F)c(Cl)c3)c(-c3ccc(F)cc3)n2)cc1`, the MIC was 8 µg/mL (≈ 18.2 µM) in the test on Staphylococcus aureus [1]; 4 µg/mL (≈ 9.09 µM) in the test on Staphylococcus aureus [2]; 2 µg/mL (≈ 4.55 µM) in the test with Staphylococcus aureus [3]; 32 µg/mL (≈ 72.8 µM) in test [4]; > 32 µg/mL in the test with Enterococcus faecalis [5]; 16 µg/mL (≈ 36.4 µM) in the test with Enterococcus faecium. The MIC in the test on Staphylococcus aureus [6] was 8 µg/mL (≈ 18.2 µM); in the test on Bacillus subtilis it was 2 µg/mL (≈ 4.55 µM); with Staphylococcus aureus [7], 8 µg/mL (≈ 18.2 µM); in the test on Enterococcus faecalis [8], > 32 µg/mL.
In the case of `O=C(O)c1ccc(-n2cc(CNc3ccc(Cl)cc3)c(-c3ccc(F)cc3)n2)cc1`, the minimal inhibitory concentration (MIC) is > 32 µg/mL in the test with Staphylococcus aureus [1]; 32 µg/mL (≈ 75.9 µM) with Staphylococcus aureus [2]; 4 µg/mL (≈ 9.48 µM) with Staphylococcus aureus [3]; > 32 µg/mL in [4]; > 32 µg/mL in the test with Enterococcus faecalis [5]; > 32 µg/mL in the test on Enterococcus faecium. Moreover, the MIC in the test on Staphylococcus aureus [6] was 8 µg/mL (≈ 19 µM); in the test with Bacillus subtilis it was 4 µg/mL (≈ 9.48 µM); with Staphylococcus aureus [7] it was > 32 µg/mL; in the test with Enterococcus faecalis [8], > 32 µg/mL.
Turning to `O=C(O)c1ccc(-n2cc(CNc3ccc(F)c(Cl)c3)c(-c3cccc(F)c3)n2)cc1`, the MIC in the test with Staphylococcus aureus [1] is 16 µg/mL (≈ 36.4 µM); in the test on Staphylococcus aureus [2], 8 µg/mL (≈ 18.2 µM); in the test with Staphylococcus aureus [3] it was 8 µg/mL (≈ 18.2 µM); in [4], 16 µg/mL (≈ 36.4 µM); with Enterococcus faecalis [5] it was 32 µg/mL (≈ 72.8 µM); in the test on Enterococcus faecium, 32 µg/mL (≈ 72.8 µM). Further, the MIC worked out at 16 µg/mL (≈ 36.4 µM) with Staphylococcus aureus [6], 4 µg/mL (≈ 9.09 µM) in the test on Bacillus subtilis, 16 µg/mL (≈ 36.4 µM) in the test on Staphylococcus aureus [7] and 32 µg/mL (≈ 72.8 µM) with Enterococcus faecalis [8].
As to `Cc1cc(NCc2cn(-c3ccc(C(=O)O)cc3)nc2-c2ccc(F)cc2)ccc1Br`, the MIC was determined as 4 µg/mL (≈ 8.33 µM) in the test on Staphylococcus aureus [1]; 2 µg/mL (≈ 4.16 µM) with Staphylococcus aureus [2]; 2 µg/mL (≈ 4.16 µM) in the test with Staphylococcus aureus [3]; 4 µg/mL (≈ 8.33 µM) in test [4]; 16 µg/mL (≈ 33.3 µM) in the test on Enterococcus faecalis [5]; 8 µg/mL (≈ 16.7 µM) with Enterococcus faecium. Further, the MIC worked out at 2 µg/mL (≈ 4.16 µM) in the test on Staphylococcus aureus [6], 1 µg/mL (≈ 2.08 µM) in the test with Bacillus subtilis, 4 µg/mL (≈ 8.33 µM) with Staphylococcus aureus [7] and 8 µg/mL (≈ 16.7 µM) in the test on Enterococcus faecalis [8].
Consider `O=C(O)c1ccc(-n2cc(CNc3ccc(Cl)c(Cl)c3)c(-c3ccc(F)cc3)n2)cc1`, for which the MIC in the test on Staphylococcus aureus [1] worked out at 2 µg/mL (≈ 4.38 µM); in the test with Staphylococcus aureus [2], 1 µg/mL (≈ 2.19 µM); in the test on Staphylococcus aureus [3], 0.5 µg/mL (≈ 1.1 µM); in test [4], 4 µg/mL (≈ 8.77 µM); in the test on Staphylococcus aureus [9] it was 1 µg/mL (≈ 2.19 µM); in the test with Staphylococcus aureus [10], 1 µg/mL (≈ 2.19 µM). Also, the MIC with Enterococcus faecalis [5] is > 32 µg/mL; in the test with Staphylococcus aureus [11] it was 1 µg/mL (≈ 2.19 µM); in the test on Enterococcus faecium, > 32 µg/mL; in the test on Staphylococcus aureus [6], 1 µg/mL (≈ 2.19 µM); in the test on Bacillus subtilis, 1 µg/mL (≈ 2.19 µM); in the test with Staphylococcus aureus [7], 2 µg/mL (≈ 4.38 µM). Also, in the test on Enterococcus faecalis [8], the minimum inhibitory concentration (MIC) was > 32 µg/mL.
Regarding `O=C(O)c1ccc(-n2cc(CNc3cc(Br)cc(C(F)(F)F)c3)c(-c3ccc(F)cc3)n2)cc1`, the MIC with Staphylococcus aureus [1] came out at 2 µg/mL (≈ 3.74 µM); in the test with Staphylococcus aureus [2] it was 1 µg/mL (≈ 1.87 µM); in the test with Staphylococcus aureus [3], 0.5 µg/mL (≈ 0.936 µM); in [4], 4 µg/mL (≈ 7.49 µM); in the test on Enterococcus faecalis [5] it was 4 µg/mL (≈ 7.49 µM); in the test on Enterococcus faecium, 2 µg/mL (≈ 3.74 µM). Further, the MIC with Staphylococcus aureus [6] turned out to be 1 µg/mL (≈ 1.87 µM); in the test with Bacillus subtilis it was 1 µg/mL (≈ 1.87 µM); in the test with Staphylococcus aureus [7], 1 µg/mL (≈ 1.87 µM); with Enterococcus faecalis [8], 2 µg/mL (≈ 3.74 µM).
Consider `O=C(O)c1ccc(-n2cc(CNc3cc(Cl)cc(C(F)(F)F)c3)c(-c3cccc(F)c3)n2)cc1`, for which the MIC was determined as 2 µg/mL (≈ 4.08 µM) with Staphylococcus aureus [1]; 1 µg/mL (≈ 2.04 µM) in the test on Staphylococcus aureus [2]; 1 µg/mL (≈ 2.04 µM) in the test with Staphylococcus aureus [3]; 4 µg/mL (≈ 8.17 µM) in [4]; 4 µg/mL (≈ 8.17 µM) in the test with Enterococcus faecalis [5]; 2 µg/mL (≈ 4.08 µM) with Enterococcus faecium. The MIC is 2 µg/mL (≈ 4.08 µM) in the test on Staphylococcus aureus [6], 0.5 µg/mL (≈ 1.02 µM) with Bacillus subtilis, 1 µg/mL (≈ 2.04 µM) in the test with Staphylococcus aureus [7] and 2 µg/mL (≈ 4.08 µM) in the test on Enterococcus faecalis [8].
For `O=C(O)c1ccc(-n2cc(CNc3ccc(Cl)c(C(F)(F)F)c3)c(-c3ccc(F)c(F)c3)n2)cc1`, the MIC with Staphylococcus aureus [1] was 1 µg/mL (≈ 1.97 µM); with Staphylococcus aureus [2], 1 µg/mL (≈ 1.97 µM); in the test on Staphylococcus aureus [3], 0.5 µg/mL (≈ 0.985 µM); in test [4] it was 4 µg/mL (≈ 7.88 µM); with Enterococcus faecalis [5], 4 µg/mL (≈ 7.88 µM); in the test with Enterococcus faecium, 2 µg/mL (≈ 3.94 µM). The MIC in the test with Staphylococcus aureus [6] turned out to be 2 µg/mL (≈ 3.94 µM); in the test on Bacillus subtilis it was 0.5 µg/mL (≈ 0.985 µM); in the test with Staphylococcus aureus [7] it was 2 µg/mL (≈ 3.94 µM); in the test with Enterococcus faecalis [8], 4 µg/mL (≈ 7.88 µM).
Turning to `O=C(O)c1ccc(-n2cc(CNc3cc(Cl)c(F)cc3F)c(-c3ccc(F)c(F)c3)n2)cc1`, the MIC (in the test on Staphylococcus aureus [1]; in the test with Staphylococcus aureus [2]; in the test with Staphylococcus aureus [3]; in test [4]; with Enterococcus faecalis [5]; in the test with Enterococcus faecium) was > 32 µg/mL each time. The MIC in the test on Staphylococcus aureus [6], in the test on Bacillus subtilis, in the test with Staphylococcus aureus [7] and with Enterococcus faecalis [8] was > 32 µg/mL each time.
